What was measured:
Type in all cases: in vivo, mouse
Settings in all cases: PVS 5 mg/kg intramyocardial at beginning of ischemia; ischemia 1 h, reperfusion 4 h
[1] = test system: myocardial protein tyrosine phosphorylation; test: Immunoblotting of heart extracts of I/R mice (anti-pTyr, p-Paxillin, p-p130cas, p-ErbB-2)
Procedure: (§1) We anesthetized the mouse with 5% isoflurane mixed with room air until loss of sensation of pain and then maintained the mouse in anesthesia status with 2% isoflurane mixed with room air through the whole procedure. The mouse's body temperature was maintained at 37° C. by a heating pad. After the mouse was intubated, we provided artificial ventilation to the mouse with a small animal ventilator. Then the chest cavity was opened at the second intercostal space and homemade chest retractors were utilized to widen the incision. We pulled the pericardium apart carefully and exposed the left anterior descending artery (LAD). A 7-0 silk was put underneath the LAD at the position of the tip of the left auricle, a 6 mm length of PE-10 tube was put on the surface of the LAD, and then a double knot was made to occlude the blood flow of LAD. The success of ligation was confirmed by paling the anterior wall of the LV. For the reperfusion group, the LAD knot would be untied for the purpose of reperfusion after 1 hour of ischemia. For the sham operation group, all procedures were the same except for the knot that occluded the LAD flow. After the successful procedure, we left the silk in situ, closed the chest cavity and weaned the animal from the ventilator.
Hearts from mice received different treatment were gently homogenized in ice-cold RIPA buffer [250 mM Tris-HCl pH 7.4, 750 mM NaCl, detergent mix (5% NP-40, 2.5% Na-deoxycholate and 0.5% SDS), and 1× protease inhibitor cocktail (EDTA free)] containing phosphatase inhibitors (2 mM Na3VO4, 10 mM NaF, and 10 mM Na2P2O7). The homogenates were centrifuged at 16,100×g at 4° C. for 10 minutes to remove the debris. Protein concentrations were determined by Bradford protein assay. Equal amounts of protein extract from those mice were separated by SDS-PAGE on an 8% or 10% polyacrylamide gel and then transferred to PVDF membrane. Membranes were incubated with indicated primary antibody at 4° C. overnight followed by incubated with secondary antibodies for 1 hour at room temperature. The protein abundance was detected by the signal intensity of each specific band.

[2] = test system: I/R mice; test: Myocardial infarct size (Evans blue/TTC staining) in I/R mice
Procedure: as §1
At the end of experiment, the animal was sacrificed. We opened the chest cavity and exposed the heart and aorta. The heart was perfused with 0.9% saline from the apex until the coronary vessels and myocardium turning into pale color. After saline perfusion, the LAD knot was tied again. 1 mL of 1% Evans blue dye was delivered into the heart through the aortic root by retrograde injection. The dye uniformly perfused the whole heart except in the area of the heart previously perfused by the occluded coronary artery (area at risk, AAR). Then the heart was quickly removed, washed in ice-cold 0.9% saline followed by frozen at −20° C. for 20 minutes, then cut into slices of 1 mm with heart matrix. […] The areas stained with Evans blue negative but TTC-positive (AAR), and TTC-negative area (infarct area) were all measured digitally by ImageJ software. […]

[3] = test system: I/R mice; test: Serum troponin I measurement in I/R mice
Procedure: as §1
Before the mouse was sacrificed, blood was drawn from the facial vein. The blood was put in the room temperature for 30 minutes and then centrifuged at 4° C. for 15 minutes at 5000 rpm. After centrifuging, the serum is collected for troponin I measurement with troponin I ELISA kit (KT-469, Kamiya Biomedical Company) according to the manufacture's protocol.

SMILES: C=CS(=O)(=O)c1ccccc1 [PVS, phenyl vinyl sulfone]
- I/R-caused tyrosine dephosphorylation of myocardial proteins [1]: rebounded
- Area of heart infarction [2]: reduced
- Release of troponin I into the blood [3]: decreased
